# In patent US10711041B2, “Lyophilisate containing a cyclic peptide of formula X1-[sequence]-X2” (priority 2013, dated 2020):
# Experiments:
# Assay type in all cases: physicochemical
# [1] = Stability investigation of the lyophilisate (visual inspection, reverse HPLC)
# Procedure: For that the lyophilisate was stored up to 24 months at 2 to 8° C. and up to 6 months at 25° C. at 60% relative humidity. Stability was investigated at different time points during that period. In particular the appearance, contents, as well as purity of the cyclic peptides were investigated. For that laboratory-common analytical processes were used, such as e.g. visual inspection and reverse HPLC.
# [2] = Chemical stability of condensed aerosol by reverse HPLC/MS; conditions: Mesh-Type nebulizer, aerosol condensed in cooling trap
# Procedure: Since proteins and peptides occasionally may be rather unstable, it was investigated, whether the cyclic peptides of amino acid sequence SEQ ID NO:1 to SEQ ID NO:6 in dissolved preparation during conversion into an aerosol remain stable. For that the cyclic peptides were dissolved in water as described in example 4. After filling into the storage container of a nebulizer the aqueous solution of the cyclic peptides were converted into an aerosol. For that a “Mesh-Type” nebulizer was used. The biological activity of the collected aerosols was determined by means of the Patch Clamp method. Thereby macroscopic currents of A549 cells were deduced in the “whole cell” configuration of the “Patch-clamp” technique, as described under “Electrophysiological Investigations of the Amilorid-sensitive Sodium Ion Channel (ENaC)”.
# The chemical stability of the condensed aerosols was determined by means of reverse HPLC/MS.
# [3] = Aerosol droplet size characterisation (laser diffraction / impactor)
# Source text: By means of a nebulizer which converts aqueous solution into an aerosol, also the aqueous solutions of the cyclic peptides of amino acid sequence SEQ ID NO:1 to SEQ ID NO:6 may be converted into aerosols. Such aerosols can be characterized with respect to the medium droplet size, as well as to size distribution of the aerosol droplets. For that conventional methods are used, which are described also in pharmacopoeias. The one analytical method uses the cascade impactor in its actual construction, the “Next Generation Impactor”. Thereby the aerosol is conducted through a series of sieve plates, whereby the diameter of the holes is diminished with each plate and the amount of the holes is increased. In the other analytical method, the laser-diffraction measurement, the droplet sizes are determined by means of laser. The 2 important parameters which are determined during these measurements, one the one hand is the median of the diameter of all droplets, and on the other hand, the amount of droplets having a diameter of ≤5 μm. In the literature that diameter is described as a limit, under which inhaled aerosol particles arrive in fact in the lung.
# It is ramblingly known, that in practice from a generated aerosol only a part is available for the patient. Thus, for determining the amount of aerosol which is available for a user, trials with a breathing simulator were carried out. For investigating the particle size and for the implementation of the breathing simulation an aerosol from an aqueous solution of the cyclic peptide of amino acid sequence SEQ ID NO:1 was used. For generating aerosol different nebulizer types were used. The nebulizers A and B were so called “Mesh-Type nebulizers”.
# [4] = Stability of the aqueous solution before inhalation (visual inspection, reverse HPLC)
# Procedure: For that reason the stability of an aqueous solution was investigated exemplarily. The ready to use-solution therefore was stored either in a syringe commonly used in laboratory, at 2 to 8° C. for 7 days, or in a container of a nebulizer at 25° C. for 24 hours. […] The methods used therefore were analytical methods commonly used in laboratory, as for example the visual inspection, as well as analysis by means of reverse HPLC.
# [5] = laboratory syringe, 2 to 8° C., T = 0 to 7 days
# [6] = storage container of a nebulizer, 25° C., T = 0 to 24 hours
smiles,measurement,setting,value
C[C@@H]1NC(=O)CNC(=O)[C@H](CCC(=O)O)NC(=O)[C@@H]2CCCN2C(=O)[C@H]([C@@H](C)O)NC(=O)[C@H](CCC(=O)O)NC(=O)[C@H](CCCNC(=N)N)NC(=O)[C@H](CCC(N)=O)NC(=O)CNC(=O)[C@@H](N)CSSC[C@@H](C(=O)O)NC(=O)[C@H](Cc2ccc(O)cc2)NC(=O)[C@H](Cc2c[nH]c3ccccc23)NC(=O)[C@@H]2CCCN2C(=O)[C@H](CCCCN)NC(=O)[C@H](C)NC(=O)[C@H](CCC(=O)O)NC1=O [SEQ ID NO: 1],Amount/Contents of lyophilisate,"[1]; storage 2-8° C., T = 0",100%
same,Purity of lyophilisate (stability study),"[1]; storage 2-8° C., T = 0",96%
same,Appearence of lyophilisate,"[1]; storage 2-8° C., T = 0 to T = 24 M",white powder
same,Amount/Contents of lyophilisate,"[1]; storage 2-8° C., T = 24 M",99%
same,Purity of lyophilisate (stability study),"[1]; storage 2-8° C., T = 24 M",96%
same,Amount/Contents of lyophilisate,"[1]; storage 25° C./60% rH, T = 0",100%
same,Purity of lyophilisate (stability study),"[1]; storage 25° C./60% rH, T = 0",96%
same,Appearence of lyophilisate,"[1]; storage 25° C./60% rH, T = 0 to T = 6 M",white powder
same,Amount/Contents of lyophilisate,"[1]; storage 25° C./60% rH, T = 6 M",99%
same,Purity of lyophilisate (stability study),"[1]; storage 25° C./60% rH, T = 6 M",95%
same,chemical stability during transformation into an aerosol,[2],"keeps its biological, as well as its chemical stability"
same,amount of droplets with a diameter of ≤5 μm in the aerosol,[3]; all nebulizers,at least 50%
same,Amount of particles with Ø ≤5 μm,[3]; nebulizer Type A,50%
same,Median particle diameter of aerosol,[3]; nebulizer Type A,4.7 μm
same,Amount of particles with Ø ≤5 μm,[3]; nebulizer Type B,70%
same,Median particle diameter of aerosol,[3]; nebulizer Type B,3.3 μm
same,Amount of particles with Ø ≤5 μm,[3]; nebulizer Type C,65%
same,Median particle diameter of aerosol,[3]; nebulizer Type C,3.7 μm
same,Purity of aqueous solution (stability study),"[4]; laboratory syringe, 2 to 8° C., T = 0",96.3%
same,Amount/contents of aqueous solution,[4]; [5],25 mg/mL
same,Appearance of aqueous solution,[4]; [5],clear solution
same,Purity of aqueous solution (stability study),"[4]; laboratory syringe, 2 to 8° C., T = 7 days",96.2%
same,Purity of aqueous solution (stability study),"[4]; storage container of a nebulizer, 25° C., T = 0",96.6%
same,Amount/contents of aqueous solution,[4]; [6],25 mg/mL
same,Appearance of aqueous solution,[4]; [6],clear solution
same,Purity of aqueous solution (stability study),"[4]; storage container of a nebulizer, 25° C., T = 24 hours",96.5%
